Experimental data from patent US10640547B2, “Immunotherapy against melanoma and other cancers” (IMMATICS BIOTECHNOLOGIES GMBH, priority 2016, dated 2020).

Key:
CD8+ T cells = assay: In vitro immunogenicity: T-cell priming with artificial APCs loaded with peptide/MHC and anti-CD28, pMHC multimer readout; type: cell-based, human; conditions: for Wells positive [%]: Table 10B, HLA-A*02 restricted peptides, percentage of positive wells among evaluable; for Donors (in vitro immunogenicity) / Wells (in vitro immunogenicity): Table 10A, HLA class I peptides
From the text: In order to obtain information regarding the immunogenicity of the TUMAPs of the present invention, the inventors performed investigations using an in vitro T-cell priming assay based on repeated stimulations of CD8+ T cells with artificial antigen presenting cells (aAPCs) loaded with peptide/MHC complexes and anti-CD28 antibody.
In order to perform in vitro stimulations by artificial antigen presenting cells loaded with peptide-MHC complex (pMHC) and anti-CD28 antibody, the inventors first isolated CD8+ T cells from fresh HLA-A*02 leukapheresis products via positive selection using CD8 microbeads (Miltenyi Biotec, Bergisch-Gladbach, Germany) of healthy donors obtained from the University clinics Mannheim, Germany, after informed consent.
PBMCs and isolated CD8+ lymphocytes were incubated in T-cell medium (TCM) until use consisting of RPMI-Glutamax (Invitrogen, Karlsruhe, Germany) supplemented with 10% heat inactivated human AB serum (PAN-Biotech, Aidenbach, Germany), 100 U/ml Penicillin/100 μg/ml Streptomycin (Cambrex, Cologne, Germany), 1 mM sodium pyruvate (CC Pro, Oberdorla, Germany), 20 μg/ml Gentamycin (Cambrex). 2.5 ng/ml IL-7 (PromoCell, Heidelberg, Germany) and 10 U/ml IL-2 (Novartis Pharma, Nürnberg, Germany) were also added to the TCM at this step.
Generation of pMHC/anti-CD28 coated beads, T-cell stimulations and readout was performed in a highly defined in vitro system using four different pMHC molecules per stimulation condition and 8 different pMHC molecules per readout condition.
The purified co-stimulatory mouse IgG2a anti human CD28 Ab 9.3 (Jung et al., 1987) was chemically biotinylated using Sulfo-N-hydroxysuccinimidobiotin as recommended by the manufacturer (Perbio, Bonn, Germany). Beads used were 5.6 μm diameter streptavidin coated polystyrene particles (Bangs Laboratories, Illinois, USA).
800.000 beads/200 μl were coated in 96-well plates in the presence of 4×12.5 ng different biotin-pMHC, washed and 600 ng biotin anti-CD28 were added subsequently in a volume of 200 μl. Stimulations were initiated in 96-well plates by co-incubating 1×10^6 CD8+ T cells with 2×10^5 washed coated beads in 200 μl TCM supplemented with 5 ng/ml IL-12 (PromoCell) for 3 days at 37° C. Half of the medium was then exchanged by fresh TCM supplemented with 80 U/ml IL-2 and incubating was continued for 4 days at 37° C. This stimulation cycle was performed for a total of three times. For the pMHC multimer readout using 8 different pMHC molecules per condition, a two-dimensional combinatorial coding approach was used as previously described (Andersen et al., 2012) with minor modifications encompassing coupling to 5 different fluorochromes. Finally, multimeric analyses were performed by staining the cells with Live/dead near IR dye (Invitrogen, Karlsruhe, Germany), CD8-FITC antibody clone SK1 (BD, Heidelberg, Germany) and fluorescent pMHC multimers. For analysis, a BD LSRII SORP cytometer equipped with appropriate lasers and filters was used. Peptide specific cells were calculated as percentage of total CD8+ cells. Evaluation of multimeric analysis was done using the FlowJo software (Tree Star, Oregon, USA). In vitro priming of specific multimer+CD8+ lymphocytes was detected by comparing to negative control stimulations.

HLA-A*02:01 = HLA-A*02:01 (Homo sapiens, UniProt P04439, D140Y/D185E/D98H/E176V/E277Q/G131W/G231S/I119V/I121R/I166T/I218V/L300P/L318F/N151K/N90K/P208A/P217A/Q86G/Q94H/R138H/R169H/T345S); assay: MHC binding assay (UV-ligand exchange, β2m ELISA); conditions: MHC class I binding score; binding to HLA-A*02:01 ranged by peptide exchange yield (UV-ligand exchange, β2m ELISA)
Procedure, shortened: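 Exchange yield, UV-ligand exchange: 100-fold diluted samples on streptavidin plates, 1 h at 37 °C; HRP anti-β2m 1 h at 37 °C; TMB read at 450 nm.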

Substance	Peptide exchange (HLA-A*02:01)	Wells positive [%] (CD8+ T cells)	Donors (in vitro immunogenicity) (CD8+ T cells)	Wells (in vitro immunogenicity) (CD8+ T cells)
4 (KTWDQVPFSV; listed as Homo sapiens) [compound 4]	++++ (>75% = ++++)	+ (<20% = +)		
20 (VISPHGIASV; listed as Homo sapiens) [compound 20]	++++ (>75% = ++++)	++ (20%-49% = ++)		
17 (GVVHGVATV; listed as Homo sapiens) [compound 17]	++++ (>75% = ++++)	+ (<20% = +)		
9 (SLAGLVLYV; listed as Homo sapiens) [compound 9]	++++ (>75% = ++++)	++ (20%-49% = ++)		
8 (SIIPYLLEA; listed as Homo sapiens) [compound 8]	++++ (>75% = ++++)	++ (20%-49% = ++)		
3 (VLFKDPVSV; listed as Homo sapiens) [compound 3]	++++ (>75% = ++++)	+ (<20% = +)		
15 (VLYDPVVGC; listed as Homo sapiens) [compound 15]	++++ (>75% = ++++)	+ (<20% = +)		
10 (KMTQYITEL; listed as Homo sapiens) [compound 10]	++++ (>75% = ++++)	++ (20%-49% = ++)		
31 (FLPRKFPSL; listed as Homo sapiens) [compound 31]	++++ (>75% = ++++)	++ (20%-49% = ++)		
18 (SLADVVDTL; listed as Homo sapiens) [compound 18]	++++ (>75% = ++++)	+ (<20% = +)		
250 (RVLPPSALQSV; listed as Homo sapiens) [compound 250]			+++ (50%-69% = +++)	+ (<20% = +)
12 (RLDDKTTNV; listed as Homo sapiens) [compound 12]	+++ (>50 = +++)	++ (20%-49% = ++)		
283 (YTFSGDVQL; listed as Homo sapiens) [compound 283]			++++ (≥70% = ++++)	+ (<20% = +)
269 (ALNESLVEC; listed as Homo sapiens) [compound 269]			++++ (≥70% = ++++)	+ (<20% = +)
11 (TLIELLLPKL; listed as Homo sapiens) [compound 11]	++++ (>75% = ++++)	+ (<20% = +)		
292 (ALGDKFLLRV; listed as Homo sapiens) [compound 292]			++++ (≥70% = ++++)	+ (<20% = +)
254 (FLMKNSDLYGA; listed as Homo sapiens) [compound 254]			++++ (≥70% = ++++)	+ (<20% = +)
13 (IQSETTVTV; listed as Homo sapiens) [compound 13]	++++ (>75% = ++++)	++ (20%-49% = ++)		
16 (GLFPSNFVTA; listed as Homo sapiens) [compound 16]	++++ (>75% = ++++)	+ (<20% = +)		
310 (ALASVIKEL; listed as Homo sapiens) [compound 310]			++ (20%-49% = ++)	+ (<20% = +)
252 (YLLDMPLWYL; listed as Homo sapiens) [compound 252]			++++ (≥70% = ++++)	+ (<20% = +)
278 (SLITGQDLLSV; listed as Homo sapiens) [compound 278]			++++ (≥70% = ++++)	+ (<20% = +)
14 (VLYEMLYGL; listed as Homo sapiens) [compound 14]	++++ (>75% = ++++)	+++ (50%-69% = +++)		
294 (FLLAEDTKV; listed as Homo sapiens) [compound 294]			++++ (≥70% = ++++)	++ (20%-49% = ++)
271 (SLVQRVETI; listed as Homo sapiens) [compound 271]			++ (20%-49% = ++)	+ (<20% = +)
277 (KTASINQNV; listed as Homo sapiens) [compound 277]			++++ (≥70% = ++++)	+++ (50%-69% = +++)
21 (FMYNFQLVTL; listed as Homo sapiens) [compound 21]	++ (>20% = ++)	+ (<20% = +)		
320 (KIIGIMEEV; listed as Homo sapiens) [compound 320]			++++ (≥70% = ++++)	++++ (≥70% = ++++)

Continued, in another order:

Peptide exchange (HLA-A*02:01)	Substance	Wells positive [%] (CD8+ T cells)	Donors (in vitro immunogenicity) (CD8+ T cells)	Wells (in vitro immunogenicity) (CD8+ T cells)
++++ (>75% = ++++)	211 (FLPFLTTEV; listed as Homo sapiens) [compound 211]	+ (<20% = +)		
++++ (>75% = ++++)	191 (YLDKMNNNI; listed as Homo sapiens) [compound 191]	+ (<20% = +)		
++++ (>75% = ++++)	232 (KILPDLNTV; listed as Homo sapiens) [compound 232]	+ (<20% = +)		
+++ (>50 = +++)	128 (ALFPGDVDRL; listed as Homo sapiens) [compound 128]	+ (<20% = +)		
++++ (>75% = ++++)	33 (SLYSYFQKV; listed as Homo sapiens) [compound 33]	++++ (≥70% = ++++)		
++++ (>75% = ++++)	213 (LLDPTNVFI; listed as Homo sapiens) [compound 213]	++ (20%-49% = ++)		
++++ (>75% = ++++)	116 (LMDETMKEL; listed as Homo sapiens) [compound 116]	+ (<20% = +)		
++++ (>75% = ++++)	155 (GLAGFFASV; listed as Homo sapiens) [compound 155]	++++ (≥70% = ++++)		
++++ (>75% = ++++)	34 (YLINFEIRSL; listed as Homo sapiens) [compound 34]	+ (<20% = +)		
+++ (>50 = +++)	133 (ALDPAYTTL; listed as Homo sapiens) [compound 133]	+ (<20% = +)		
++++ (>75% = ++++)	189 (KALQFLEEV; listed as Homo sapiens) [compound 189]	+ (<20% = +)		
++++ (>75% = ++++)	121 (FLEDLVPYL; listed as Homo sapiens) [compound 121]	+++ (50%-69% = +++)		
++++ (>75% = ++++)	192 (KLFTQIFGV; listed as Homo sapiens) [compound 192]	+ (<20% = +)		
